Experimental findings from US20070243211A1, “Compositions for regulating metabolic disorders and methods of use thereof” (priority 2005, published 2007) are described below.

This series can be described thus: Uptake of L-carnitine by patients from oral dosage forms, measured by serum plasma levels. In kind it is in vivo. The text has this:
Softgel capsules provide improved delivery of the components of the composition of the present invention compared to alternative dosage forms. For example, the uptake of L-carnitine by patients from tablets (e.g., measured by serum plasma levels) is about 10-14%; the uptake of L-carnitine from standard hard capsules is about 15-20%; whereas the uptake of L-carnitine from softgel capsules is about 100%.

For `C[N+](C)(C)C[C@H](O)CC(=O)[O-]` [L-carnitine], the “uptake of L-carnitine” value was “about 100%” (from softgel capsules), 15-20% (from standard hard capsules) and 10-14% (from tablets).
